In paper PMC4512978, “Synthesis and evaluation in rats of homologous series of [^18F]-labeled dopamine D2/3 receptor agonists based on the 2-aminomethylchroman scaffold as potential PET tracers” (EJNMMI Research, 2015):

Legend:
[1] = LogD measurement (n-octanol/phosphate buffer); format: physicochemical; conditions: n-octanol / 1 M phosphate buffer pH 7.4
Procedure: LogD of the tracers was measured using the radioactivity remaining on the HLB SPE cartridges after their elution with ethanol during the tracer formulation procedure (see above). The cartridge was dried with nitrogen for 5 min and eluted with at least 1.5 mL n-octanol. A 500 μL portion of octanol eluate was mixed with 500 μL of 1 M phosphate buffer (pH 7.4) and vigorously vortexed for 5 min. The mixture was then centrifuged at 17,000g for 10 min and 3 × 100 μL aliquots of organic and aqueous phase were loaded into a gamma-counter for radioactivity measurement. To correct for possible presence of radioactive impurities in the tracer, aliquots of organic and aqueous phases were later analyzed by radio-TLC, and the counts obtained from the gamma-counter were corrected according to the percentage of impurities found in aqueous and organic phases. LogD was calculated with the following formula: LogD=lgCPMorg×Xorgtracer/CPMaq×Xaqtracer,
where CPMorg is the mean radioactivity of the organic aliquots, Xorgtracer is the mean percentage of radioactivity accounting for intact tracer in organic aliquots (as determined from radio-TLC), and CPMaq and Xaqtracer are the corresponding values for the aqueous phase.
For each tracer batch used for logD determination, the experiment was performed in duplicate. LogD values are means calculated from at least two independent experiments.

[2] = Tracer metabolism in plasma and brain extract (radio-TLC); format: in vivo, rats; conditions: living rats
Procedure: Throughout the scan, arterial blood samples (15–19 samples; 0.10–0.15 mL each) were withdrawn from each rat through the arterial cannula. […] From each sample, 25 μL aliquots of whole blood were withdrawn. The rest was centrifuged at 3500 g for 5 min; 25 μL supernatant (plasma) aliquots were withdrawn and deproteinated with 75 μL of ice-cold acetonitrile. From the resulting 100 μL, 2–8 μL portions (i.e., 2–8 % of volume) were taken for thin layer chromatography analysis (radio-TLC) to assess radiometabolite content.
The radioactivity of the plasma and whole blood samples was measured using a well-type gamma-counter (LKB-1282-Compugamma, LKB Wallac).
Radio-TLC was performed on silica plates. Samples of the formulated tracers (diluted) were run along with deproteinated plasma samples to confirm the identity of the parent compound in plasma. Eluent systems used and TLC Rf values recorded are presented in Additional file 1: Table S1.
Another half of the brain was homogenized in 3 mL of ice-cold acetonitrile using Heidolph IDAX600 homogenizer at maximum speed. Homogenate was centrifuged at 3500g for 5 min, and the supernatant (containing >95 % total radioactivity) was analyzed by radio-TLC in the same way as described above for the plasma.

[3] = Ex vivo tissue uptake after the PET scan (gamma-counter); format: in vivo, Sprague-Dawley rats
Procedure: After the end of the PET scans (i.e., 98 ± 8 min after tracer injection), anesthetized animals were sacrificed by heart extirpation and dissected. Samples of brain and peripheral tissues were taken. All samples were weighed, and their radioactivity was measured in a gamma-counter.

[4] = raclopride 1 mg/kg, after PET scan

logD [1]: 1.48 ± 0.002 | metabolism in plasma [2]: more stable | Ex vivo uptake, Adipose tissue ([3]; RAC): 0.10±0.05 SUV | Ex vivo uptake, Adrenal glands ([3]; RAC): 1.73±1.07 SUV | Ex vivo uptake, Bladder ([3]; RAC): 0.69±0.30 SUV | Ex vivo uptake, Blood cells ([3]; RAC): 0.05±0.04 SUV | Ex vivo uptake, Bone ([3]; RAC): 0.12±0.08 SUV | Ex vivo uptake, Bone marrow ([3]; RAC): 0.91±0.53 SUV | Ex vivo uptake, Caecum ([3]; RAC): 0.91±1.10 SUV | Ex vivo uptake, Duodenum ([3]; RAC): 22.8±36.6 SUV | Ex vivo uptake, Heart ([3]; RAC): 0.15±0.10 SUV | Ex vivo uptake, Kidney ([3]; RAC): 0.61±0.51 SUV | Ex vivo uptake, Large intestine ([3]; RAC): 1.20±1.48 SUV | Ex vivo uptake, Large intestine content ([3]; RAC): 0.06±0.04 SUV | Ex vivo uptake, Liver ([3]; RAC): 1.47±1.56 SUV | Ex vivo uptake, Lung ([3]; RAC): 1.19±0.40 SUV | Ex vivo uptake, Muscle ([3]; RAC): 0.15±0.11 SUV | Ex vivo uptake, Pancreas ([3]; RAC): 0.92±0.77 SUV | Ex vivo uptake, Plasma ([3]; RAC): 0.07±0.02 SUV | Ex vivo uptake, Prostate ([3]; RAC): 0.42±0.10 SUV | Ex vivo uptake, Small intestine ([3]; RAC): 11.1±18.4 SUV | Ex vivo uptake, Small intestine content ([3]; RAC): 60.5±104 SUV | Ex vivo uptake, Spleen ([3]; RAC): 1.62±1.15 SUV | Ex vivo uptake, Stomach ([3]; RAC): 1.73±0.75 SUV | Ex vivo uptake, Submandibular gland ([3]; RAC): 1.41±0.34 SUV | Ex vivo uptake, Testes ([3]; RAC): 0.04±0.01 SUV | Ex vivo uptake, Thymus ([3]; RAC): 0.43±0.15 SUV | Ex vivo uptake, Urine ([3]; RAC): 2.32±3.35 SUV | Ex vivo uptake, Whole blood ([3]; RAC): 0.12±0.08 SUV | Ex vivo uptake, Adipose tissue ([3]; SAL): 0.18±0.09 SUV | Ex vivo uptake, Adrenal glands ([3]; SAL): 1.53±0.58 SUV | Ex vivo uptake, Bladder ([3]; SAL): 0.23±0.05 SUV | Ex vivo uptake, Blood cells ([3]; SAL): 0.05±0.04 SUV | Ex vivo uptake, Bone ([3]; SAL): 0.14±0.03 SUV | Ex vivo uptake, Bone marrow ([3]; SAL): 0.98±0.36 SUV | Ex vivo uptake, Caecum ([3]; SAL): 0.15±0.10 SUV | Ex vivo uptake, Duodenum ([3]; SAL): 1.92±0.35 SUV | Ex vivo uptake, Heart ([3]; SAL): 0.11±0.04 SUV | Ex vivo uptake, Kidney ([3]; SAL): 0.40±0.10 SUV | Ex vivo uptake, Large intestine ([3]; SAL): 0.15±0.07 SUV | Ex vivo uptake, Large intestine content ([3]; SAL): 0.02±0.01 SUV | Ex vivo uptake, Liver ([3]; SAL): 0.86±0.23 SUV | Ex vivo uptake, Lung ([3]; SAL): 1.18±0.16 SUV | Ex vivo uptake, Muscle ([3]; SAL): 0.07±0.04 SUV | Ex vivo uptake, Pancreas ([3]; SAL): 0.75±0.27 SUV | Ex vivo uptake, Plasma ([3]; SAL): 0.14±0.11 SUV | Ex vivo uptake, Prostate ([3]; SAL): 0.38±0.15 SUV | Ex vivo uptake, Small intestine ([3]; SAL): 0.18±0.07 SUV | Ex vivo uptake, Small intestine content ([3]; SAL): 0.56±0.24 SUV | Ex vivo uptake, Spleen ([3]; SAL): 1.52±0.68 SUV | Ex vivo uptake, Stomach ([3]; SAL): 1.79±0.92 SUV | Ex vivo uptake, Submandibular gland ([3]; SAL): 1.51±0.26 SUV | Ex vivo uptake, Testes ([3]; SAL): 0.04±0.01 SUV | Ex vivo uptake, Thymus ([3]; SAL): 0.49±0.09 SUV | Ex vivo uptake, Urine ([3]; SAL): 0.69±0.33 SUV | Ex vivo uptake, Whole blood ([3]; SAL): 0.06±0.03 SUV | Ex vivo uptake, Brainstem [3, 4]: 0.03 ± 0.01 SUV | Ex vivo uptake, Cerebellum [3, 4]: 0.03 ± 0.01 SUV | Ex vivo uptake, Cortex [3, 4]: 0.03 ± 0.01 SUV | Ex vivo uptake, Hippocampus [3, 4]: 0.03 ± 0.01 SUV | Ex vivo uptake, Mean brain uptake [3, 4]: 0.03 ± 0.01 SUV | Ex vivo uptake, Olfactory bulbs [3, 4]: 0.03 ± 0.02 SUV | Ex vivo uptake, Parietal bone [3, 4]: 0.08 ± 0.03 SUV | Ex vivo uptake, Pituitary [3, 4]: 1.08 ± 0.27 SUV | Ex vivo uptake, Rest of brain [3, 4]: 0.03 ± 0.02 SUV | Ex vivo uptake, Striatum [3, 4]: 0.03 ± 0.01 SUV | Ex vivo uptake, Thalamus + hypothalamus [3, 4]: 0.03 ± 0.01 SUV | Ex vivo uptake, Brainstem ([3]; saline, after PET scan): 0.03 ± 0.004 SUV | Ex vivo uptake, Cerebellum ([3]; saline, after PET scan): 0.03 ± 0.01 SUV | Ex vivo uptake, Cortex ([3]; saline, after PET scan): 0.03 ± 0.003 SUV | Ex vivo uptake, Hippocampus ([3]; saline, after PET scan): 0.03 ± 0.02 SUV | Ex vivo uptake, Mean brain uptake ([3]; saline, after PET scan): 0.03 ± 0.01 SUV | Ex vivo uptake, Olfactory bulbs ([3]; saline, after PET scan): 0.03 ± 0.001 SUV | Ex vivo uptake, Parietal bone ([3]; saline, after PET scan): 0.09 ± 0.03 SUV | Ex vivo uptake, Pituitary ([3]; saline, after PET scan): 1.36 ± 0.30 SUV | Ex vivo uptake, Rest of brain ([3]; saline, after PET scan): 0.02 ± 0.02 SUV | Ex vivo uptake, Thalamus + hypothalamus ([3]; saline, after PET scan): 0.03 ± 0.01 SUV | Ex vivo uptake, Striatum ([3]; saline, after PET scan (98 ± 8 min p.i.)): 0.02 ± 0.02 SUV
SMILES: Oc1ccc2c(c1)O[C@@H](CNCCN1CCN(c3ccc(OCC[18F])cc3)CC1)CC2 [[^18F]FEt-AMC15, (R) 1-(4-(2-[^18F]fluoroethoxy)phenyl)-4-(4-(7-hydroxychroman-2-yl)-3-azabutyl)-piperazine]
